For assay [1], the system named is HCV replicon I389luc-ubi-neo/NS3-3′/ET in ET (Huh-lucubineo-ET) cells. Description: Replicon assay (Biological Example 2), luciferase readout. Type of assay: cell-based. The note with it: Hepatitis C virus. In short, it runs like this: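 EC50 values come from Hill fits of % inhibition of replicon-driven firefly luciferase, relative to no-compound wells. Compounds were serially diluted (10 points, 3-fold, 0.1 nM–50 μM final, 0.5% DMSO) onto ET replicon cells and read after 48 h.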

A further assay deals with T1, HCV polymerase (Hepatitis C virus genotype 1b, UniProt Q9WMX2).
T1 construct: (His)6 (C); made in house; host or cells: XL-1 cells (E. coli, by own knowledge)
The assay is described as follows: Polymerase assay of Biological Example 1 (IC50 values of Table 3). Type of assay: biochemical. To be noted: IC50 values of Table 3, polymerase assay of Biological Example 1; read-out: NS5B-enzyme3.

Where [2] appears, read: ET cells, luciferase activity 48 hours after compound.

Bounds are passed on as bounds.

As for `CCc1ccc(S(=O)(=O)N2CC(=O)N(c3cc(-c4ccc(C)cc4)sc3C(=O)O)[C@H](C3CCCCC3)C2)cn1` [Compound 304, 3-[(R)-2-Cyclohexyl-4-(6-ethyl-pyridine-3-sulfonyl)-6-oxo-piperazin-1-yl]-5-p-tolyl-thiophene-2-carboxylic acid], the IC50 was ≤ 100 nM in assay [1] (setting [2]) and 5 nM on HCV polymerase.

For `Cc1ccc(-c2cc(N3C(=O)CN(S(=O)(=O)c4cnc(C)c(C)c4)C[C@H]3C3CCCCC3)c(C(=O)O)s2)cc1` [Compound 305, 3-[(R)-2-Cyclohexyl-4-(5,6-dimethyl-pyridine-3-sulfonyl)-6-oxo-piperazin-1-yl]-5-p-tolyl-thiophene-2-carboxylic acid], the IC50 is ≤ 100 nM in assay [1] (setting [2]) and 4 nM on HCV polymerase.

On to `COCCNCC1OC[C@@H](C2CCCCC2)N(c2cc(C#CC(C)(C)C)sc2C(=O)O)C1=O` (stereo partly drawn) [Compound 307, 3-{(R)-5-Cyclohexyl-2-[(2-methoxy-ethylamino)-methyl]-3-oxo-morpholin-4-yl}-5-(3,3-dimethyl-but-1-ynyl)-thiophene-2-carboxylic acid], for which the IC50 was ≤ 100 nM in assay [1] (setting [2]) and 6 nM at HCV polymerase.

`CC(C)(C)C#Cc1cc(N2C(=O)OCCC2C2CCCCC2)c(C(=O)O)s1` (stereo not shown) [Compound 308, 3-(4-Cyclohexyl-2-oxo-[1,3]oxazinan-3-yl)-5-(3,3-dimethyl-but-1-ynyl)-thiophene-2-carboxylic acid]: the results for the IC50 (in assay [1] (setting [2]); on HCV polymerase) were ≤ 100 nM and 14 nM, respectively.

Regarding `CC(C)(C)C#Cc1cc(N2C(=O)COC[C@H]2C2CCCCC2)c(C(=O)NS(C)(=O)=O)s1` [Compound 309, N-[3-((R)-3-Cyclohexyl-5-oxo-morpholin-4-yl)-5-(3,3-dimethyl-but-1-ynyl)-thiophene-2-carbonyl]-methanesulfonamide], the IC50 in assay [1] (between 100 nM and 5.0 uM) is 100 to 5000 nM; on HCV polymerase, 54 nM.

In the case of `CC(C)(C)C#Cc1cc(N2C(=O)C(CN3CCOCC3)OC[C@H]2C2CCCCC2)c(C(=O)O)s1` (stereo partly drawn) [Compound 310, 3-((R)-5-Cyclohexyl-2-morpholin-4-ylmethyl-3-oxo-morpholin-4-yl)-5-(3,3-dimethyl-but-1-ynyl)-thiophene-2-carboxylic acid], the values for the IC50 (in assay [1] (setting [2]); on HCV polymerase) were ≤ 100 nM and 4 nM, respectively.

As to `CC(C)(C)C#Cc1cc(N2C(=O)[C@@](C)(CCCO)OC[C@H]2C2CCCCC2)c(C(=O)O)s1` [Compound 311, 3-[(2R,5R)-5-Cyclohexyl-2-(3-hydroxy-propyl)-2-methyl-3-oxo-morpholin-4-yl]-5-(3,3-dimethyl-but-1-ynyl)-thiophene-2-carboxylic acid], the IC50 is ≤ 100 nM in assay [1] (setting [2]) and 2 nM on HCV polymerase.

Turning to `CC(C)(C)C#Cc1cc(N2C(=O)[C@](C)(CC#N)OC[C@H]2C2CCCCC2)c(C(=O)O)s1` [Compound 312, 3-((2S,5R)-2-Cyanomethyl-5-cyclohexyl-2-methyl-3-oxo-morpholin-4-yl)-5-(3,3-dimethyl-but-1-ynyl)-thiophene-2-carboxylic acid], the values for the IC50 (in assay [1] (setting [2]); on HCV polymerase) were ≤ 100 nM and 2 nM, respectively.

For `CC(C)(C)C#Cc1cc(N2C(=O)C(O)CCC2C2CCCCC2)c(C(=O)O)s1` (stereo not shown) [Compound 313, 3-(6-Cyclohexyl-3-hydroxy-2-oxo-piperidin-1-yl)-5-(3,3-dimethyl-but-1-ynyl)-thiophene-2-carboxylic acid], the IC50 in assay [1] (setting [2]) is ≤ 100 nM; on HCV polymerase, 31.5 nM.

As for `Cc1ccc(-c2cc(N3C(=O)C(C)(C)OC[C@H]3C3CCCCC3)c(C(=O)O)s2)cc1` [Compound 314, 3-((R)-5-Cyclohexyl-2,2-dimethyl-3-oxo-morpholin-4-yl)-5-p-tolyl-thiophene-2-carboxylic acid], the IC50 in assay [1] (setting [2]) is ≤ 100 nM; on HCV polymerase it was 6 nM.

With `CC1(C)OC[C@@H](C2CCCCC2)N(c2cc(-c3ccc(Cl)cc3)sc2C(=O)O)C1=O` [Compound 315, 5-(4-Chloro-phenyl)-3-((R)-5-cyclohexyl-2,2-dimethyl-3-oxo-morpholin-4-yl)-thiophene-2-carboxylic acid], the figures for the IC50 (in assay [1] (setting [2]); at HCV polymerase) were ≤ 100 nM and 6 nM, respectively.

In the case of `CC(O)C1CCC(C2CCCCC2)N(c2cc(C#CC(C)(C)C)sc2C(=O)O)C1=O` (stereo not shown) [Compound 316, 3-[6-Cyclohexyl-3-(1-hydroxy-ethyl)-2-oxo-piperidin-1-yl]-5-(3,3-dimethyl-but-1-ynyl)-thiophene-2-carboxylic acid], the IC50 is ≤ 100 nM in assay [1] (setting [2]) and 3 nM at HCV polymerase.

With `Cc1ccc(-c2cc(N3C(=O)C(O)CCC3C3CCCCC3)c(C(=O)O)s2)cc1` (stereo not shown) [Compound 317, 3-(6-Cyclohexyl-3-hydroxy-2-oxo-piperidin-1-yl)-5-p-tolyl-thiophene-2-carboxylic acid], the IC50 was 100 to 5000 nM in assay [1] (between 100 nM and 5.0 uM); 24.1 nM on HCV polymerase.

As to `CC(C)(C)C#Cc1cc(N2C(=O)[C@](C)(CCC(C)(C)O)OC[C@H]2C2CCCCC2)c(C(=O)O)s1` [Compound 318, 3-[(2S,5R)-5-Cyclohexyl-2-(3-hydroxy-3-methyl-butyl)-2-methyl-3-oxo-morpholin-4-yl]-5-(3,3-dimethyl-but-1-ynyl)-thiophene-2-carboxylic acid], the IC50 in assay [1] (setting [2]) is ≤ 100 nM; on HCV polymerase it was 14 nM.

Consider `CC(C)(C)C#Cc1cc(N2C(=O)[C@@](C)(CCC(C)(C)O)OC[C@H]2C2CCCCC2)c(C(=O)O)s1` [Compound 319, 3-[(2R,5R)-5-Cyclohexyl-2-(3-hydroxy-3-methyl-butyl)-2-methyl-3-oxo-morpholin-4-yl]-5-(3,3-dimethyl-but-1-ynyl)-thiophene-2-carboxylic acid], for which the IC50 is ≤ 100 nM in assay [1] (setting [2]) and 4 nM on HCV polymerase.

As for `C[C@@H](O)CC[C@]1(C)OC[C@@H](C2CCCCC2)N(c2cc(C#CC(C)(C)C)sc2C(=O)O)C1=O` [Compound 320, 3-[(2S,5R)-5-Cyclohexyl-2-((R)-3-hydroxy-butyl)-2-methyl-3-oxo-morpholin-4-yl]-5-(3,3-dimethyl-but-1-ynyl)-thiophene-2-carboxylic acid], the values for the IC50 (in assay [1] (setting [2]); at HCV polymerase) were ≤ 100 nM and 6 nM, respectively.

For `C[C@@H](O)CC[C@@]1(C)OC[C@@H](C2CCCCC2)N(c2cc(C#CC(C)(C)C)sc2C(=O)O)C1=O` [Compound 321, 3-[(2R,5R)-5-Cyclohexyl-2-((R)-3-hydroxy-butyl)-2-methyl-3-oxo-morpholin-4-yl]-5-(3,3-dimethyl-but-1-ynyl)-thiophene-2-carboxylic acid], the IC50 in assay [1] (setting [2]) is ≤ 100 nM; on HCV polymerase, 2 nM.

For the compound `CC(C)(C)C#Cc1cc(N2C(=O)[C@@H](O)CC[C@H]2C2CCCCC2)c(C(=O)O)s1` [Compound 322], the values for the IC50 (in assay [1] (setting [2]); at HCV polymerase) were ≤ 100 nM and 6 nM, respectively.

`CC(C)(C)C#Cc1cc(N2C(=O)[C@@](C)(CCO)OC[C@H]2C2CCCCC2)c(C(=O)O)s1` [Compound 323, 3-[(2R,5R)-5-Cyclohexyl-2-(2-hydroxy-ethyl)-2-methyl-3-oxo-morpholin-4-yl]-5-(3,3-dimethyl-but-1-ynyl)-thiophene-2-carboxylic acid]: the IC50 is ≤ 100 nM in assay [1] (setting [2]) and 3 nM at HCV polymerase.

With `Cc1ccc(-c2cc(N3C(=O)C(C)(O)CCC3C3CCCCC3)c(C(=O)O)s2)cc1` (stereo not shown) [Compound 324, 3-(6-Cyclohexyl-3-hydroxy-3-methyl-2-oxo-piperidin-1-yl)-5-p-tolyl-thiophene-2-carboxylic acid], the IC50 in assay [1] (between 100 nM and 5.0 uM) is 100 to 5000 nM; at HCV polymerase, 85 nM.

These data come from US9498483B2, “2,3,5-trisubstituted thiophene compounds and uses thereof” (priority 2010, dated 2016).
